Measurements: PMC6644896 (ACS Omega, 2018)

How the values were obtained:
[1] = target: T1, human DNA topoisomerase I (Homo sapiens, UniProt P11387); assay: DNA relaxation assay, agarose gel; type: biochemical
T1 sequence (P11387 2-765): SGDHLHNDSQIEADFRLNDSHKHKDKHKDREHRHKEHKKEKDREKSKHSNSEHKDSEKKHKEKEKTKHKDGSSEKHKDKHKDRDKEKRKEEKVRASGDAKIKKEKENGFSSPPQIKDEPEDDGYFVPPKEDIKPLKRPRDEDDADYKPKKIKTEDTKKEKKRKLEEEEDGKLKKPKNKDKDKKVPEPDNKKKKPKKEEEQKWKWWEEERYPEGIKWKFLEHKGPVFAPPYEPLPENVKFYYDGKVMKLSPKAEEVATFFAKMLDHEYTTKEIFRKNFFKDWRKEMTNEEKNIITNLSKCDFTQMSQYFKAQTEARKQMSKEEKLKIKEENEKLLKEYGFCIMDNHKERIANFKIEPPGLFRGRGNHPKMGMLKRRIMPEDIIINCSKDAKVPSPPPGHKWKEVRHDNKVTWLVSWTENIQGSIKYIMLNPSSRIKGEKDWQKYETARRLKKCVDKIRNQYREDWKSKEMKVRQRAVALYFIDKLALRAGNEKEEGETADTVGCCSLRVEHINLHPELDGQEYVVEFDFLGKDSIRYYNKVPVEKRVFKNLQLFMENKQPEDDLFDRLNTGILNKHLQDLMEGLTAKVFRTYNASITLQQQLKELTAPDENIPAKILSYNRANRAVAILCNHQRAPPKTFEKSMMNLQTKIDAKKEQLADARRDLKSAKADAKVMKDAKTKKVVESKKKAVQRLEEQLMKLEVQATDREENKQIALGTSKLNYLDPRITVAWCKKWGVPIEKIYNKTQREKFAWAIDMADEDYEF

[2] = target: human DNA topoisomerase II alpha (Homo sapiens, UniProt P11388); assay: DNA relaxation assay, agarose gel; type: biochemical
Sequence of human DNA topoisomerase II alpha (P11388 whole entry): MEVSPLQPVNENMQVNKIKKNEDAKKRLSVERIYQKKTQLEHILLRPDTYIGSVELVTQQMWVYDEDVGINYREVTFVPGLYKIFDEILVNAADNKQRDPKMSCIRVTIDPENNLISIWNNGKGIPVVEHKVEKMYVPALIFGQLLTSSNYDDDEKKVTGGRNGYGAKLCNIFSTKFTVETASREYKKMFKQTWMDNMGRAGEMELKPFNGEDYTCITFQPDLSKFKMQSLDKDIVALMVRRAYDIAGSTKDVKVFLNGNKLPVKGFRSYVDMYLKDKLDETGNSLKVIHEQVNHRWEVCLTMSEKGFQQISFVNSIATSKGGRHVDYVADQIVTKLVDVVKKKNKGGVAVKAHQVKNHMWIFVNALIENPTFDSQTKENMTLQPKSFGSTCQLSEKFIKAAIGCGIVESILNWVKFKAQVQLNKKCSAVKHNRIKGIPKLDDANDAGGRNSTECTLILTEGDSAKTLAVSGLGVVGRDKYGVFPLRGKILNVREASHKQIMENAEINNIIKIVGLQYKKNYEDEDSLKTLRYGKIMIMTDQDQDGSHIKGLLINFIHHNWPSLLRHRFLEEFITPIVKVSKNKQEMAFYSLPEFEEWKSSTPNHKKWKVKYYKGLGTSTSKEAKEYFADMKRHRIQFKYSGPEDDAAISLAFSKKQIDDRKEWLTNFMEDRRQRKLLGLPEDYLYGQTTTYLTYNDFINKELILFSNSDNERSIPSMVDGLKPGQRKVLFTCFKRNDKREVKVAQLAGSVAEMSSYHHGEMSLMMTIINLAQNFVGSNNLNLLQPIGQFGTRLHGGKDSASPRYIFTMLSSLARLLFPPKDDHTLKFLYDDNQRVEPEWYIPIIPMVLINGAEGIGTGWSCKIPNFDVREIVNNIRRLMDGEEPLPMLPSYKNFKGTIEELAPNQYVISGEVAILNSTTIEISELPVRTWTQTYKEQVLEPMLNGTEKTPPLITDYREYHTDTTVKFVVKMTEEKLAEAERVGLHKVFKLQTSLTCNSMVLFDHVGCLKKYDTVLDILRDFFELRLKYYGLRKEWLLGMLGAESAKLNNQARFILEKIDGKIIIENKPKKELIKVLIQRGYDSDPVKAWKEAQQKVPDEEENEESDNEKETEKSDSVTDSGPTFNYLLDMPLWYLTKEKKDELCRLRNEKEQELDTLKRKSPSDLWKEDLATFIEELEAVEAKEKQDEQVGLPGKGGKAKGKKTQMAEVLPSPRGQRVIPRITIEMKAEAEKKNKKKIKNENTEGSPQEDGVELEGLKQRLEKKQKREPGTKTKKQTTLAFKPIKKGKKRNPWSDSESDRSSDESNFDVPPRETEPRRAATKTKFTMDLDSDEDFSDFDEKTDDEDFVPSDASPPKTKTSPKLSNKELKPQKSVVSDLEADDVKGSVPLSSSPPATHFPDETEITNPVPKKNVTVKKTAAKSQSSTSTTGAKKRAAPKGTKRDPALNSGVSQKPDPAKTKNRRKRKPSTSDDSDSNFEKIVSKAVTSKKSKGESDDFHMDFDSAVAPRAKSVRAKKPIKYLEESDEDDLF

Compound	DNA relaxation assay, agarose gel (5 and 10 μM) [1]	DNA relaxation assay, agarose gel (5 and 10 μM) [2]
CC[C@@]1(O)C(=O)OCc2c1cc1n(c2=O)Cc2cc3ccccc3nc2-1 [CPT, camptothecin]	CPT (a control for topoisomerase I inhibition) and DOX (a control for topoisomerase II inhibition) at two different concentrations	–
COc1cccc2c1C(=O)c1c(O)c3c(c(O)c1C2=O)C[C@@](O)(C(=O)CO)C[C@@H]3O[C@H]1C[C@H](N)[C@H](O)[C@H](C)O1 [DOX, doxorubicin]	–	These showed no DNA migration, indicating complete inhibition of the respective topoisomerase enzymes.
